Patent US11632953B2, “Method for controlling hematophagous or sap-feeding arthropods” (Board of Supervisors of Louisiana State University and …, priority 2016, dated 2023)
Converted amounts (≈) assume the structure as drawn. Like-named read-outs stand apart in the source and are kept apart here.

Columns and labels:
AnKir1 = AnKir1 (Anopheles gambiae, UniProt A0A075M2J8); experiment: thallium (Tl+) flux assay; assay type: cell-based
Description: (§1) The thallium flux assay is an in vitro method of measuring conductance through a potassium ion channel. Potassium channels are also permeable to thallium ions. The modulation of a K^+ channel will thus increase or decrease thallium ion flow through the channel and thus, alter the observed fluorescence of a thallium-specific indicator dye.
After 1 hr incubation at room temperature, the dye-loading solution was washed from the plates and replaced with 20 μL/well of assay buffer. The plates were transferred to a Hamamatsu Functional Drug Screening System 6000 (FDSS6000; Hamamatsu, Tokyo, Japan), where 20 μL/well of each of the test compounds in assay buffer was added and allowed to incubate with the cells for 20 min. After incubation, a baseline recording was collected at 1 Hz for 10 s (excitation 470±20 nm, emission 540±30 nm); a thallium stimulus buffer was then added (10 μL/well), and data were then collected for an additional 4 min. […] To ensure the small-molecule vehicle DMSO had no direct effect on AnKir1-dependent Tl^+ flux, the assay's tolerance to different doses of DMSO was evaluated. The robustness and reproducibility of the assay was determined by comparing Tl^+ flux through tetracycline-induced and tetracycline-free cells. The Z′ value was calculated as:
Z′=1−(3SDp+3SDn)/|meanp+meann| where SD is standard deviation, and p and n are control and uninduced flux values, respectively. To compare the effect of DMSO on AnKir1-mediated Tl^+ flux, a one-way ANOVA was performed with a Tukey's multiple comparison test. Prism software (GraphPad Software) was used to generate CRC from Tl^+ flux. Half-inhibition concentration (IC50) values were calculated from fits using a four parameter logistic equation.
Test compounds were transferred to daughter, 384-well polypropylene plates (Greiner Bio-One, Monroe, N.C.) with an Echo555 liquid handler (Labcyte, Sunnyvale, Calif.), and then diluted into assay buffer to generate a 2× stock in 0.6% DMSO (0.3% final). […] Concentration-response curves (CRCs) were generated by screening compounds at 3-fold dilution series (1 nM-30 μM).
Tl^+ flux data were analyzed using Excel (Microsoft Corp, Redmond, Wash.) with XLfit add-in (IDBS, Guildford, Surrey, UK), OriginPro (Origin Lab, Northampton, Mass.), and GraphPad Prism (GraphPad Software, San Diego, Calif., USA) software. Raw data were opened in Excel and each data point in a given trace was divided by the first data point from that trace (static ratio) followed by subtraction of data points from control traces generated with vehicle controls. The slope of the fluorescence increase beginning 5 s after Tl^+ addition and ending 15 s after Tl^+ addition was calculated.
To perform Tl+ flux assays, stably transfected T-Rex-HEK-293 cells expressing AnKir1 channels were cultured overnight in 384-well plates (20,000 cells/20 μL/well), black-walled, clear-bottomed BD Pure Coat amine-coated plates (BD, Bedford, Mass.) with a plating media containing DMEM, 10% dialyzed FBS and 1 μg/mL tetracycline. […] Following 1 hr incubation at room temperature, the dye-loading solution was washed from the plates and replaced with 20 μL/well of assay buffer.

[1] = solubility limit in feeding solution
Kir4.1 = Kir4.1 (Homo sapiens (Human), UniProt P78508); experiment: thallium (Tl+) flux assay; assay type: cell-based, mammalian; conditions: means (n = 3); read-out: IC50 μM (95% Cl)
Description: as §1
(§2) Stably transfected T-Rex-HEK-293-AnKir1 cells were cultured overnight in 384-well plates in media containing DMEM, 10% dialyzed FBS, and 1 μg/mL tetracycline to induce channel expression. The next day the cell culture medium was replaced with a dye-loading solution containing assay buffer (Hanks Balanced Salt Solution with 20 mM HEPES, pH 7.3), 0.01% (w/v) Pluronic F-127 (Life Technologies, Carlsbad, Calif.), and 1.2 μM of the thallium-sensitive dye Thallos-AM (TEFlabs, Austin, Tex.). After 1 hr incubation at room temperature, the dye-loading solution was washed from the plates and replaced with 20 μL/well of assay buffer. […] To ensure the small-molecule vehicle DMSO had no direct effect on AnKir1-dependent Tl^+ flux, the assay's tolerance to different doses of DMSO was evaluated. The robustness and reproducibility of the assay was determined by comparing Tl^+ flux through tetracycline-induced and tetracycline-free cells. The Z′ value was calculated as:
(§3) Z′=1−(3SDp+3SDn)/|meanp+meann| where SD is standard deviation, and p and n are control and uninduced flux values, respectively. […] Half-inhibition concentration (IC50) values were calculated from fits using a four parameter logistic equation. […]
(§4) Tl^+ flux data were analyzed using Excel (Microsoft Corp, Redmond, Wash.) with XLfit add-in (IDBS, Guildford, Surrey, UK), OriginPro (Origin Lab, Northampton, Mass.), and GraphPad Prism (GraphPad Software, San Diego, Calif., USA) software. […] The slope of the fluorescence increase beginning 5 s after Tl^+ addition and ending 15 s after Tl^+ addition was calculated.

Kir6.2/SUR1 = Kir6.2/SUR1 (Homo sapiens (Human), UniProt Q09428+Q14654); experiment: thallium (Tl+) flux assay; assay type: cell-based, mammalian
Description: as §1, §2, §3, §4

AeKir1 = AeKir1 (Aedes aegypti, UniProt L0EQS9); experiment: thallium (Tl+) flux assay; assay type: cell-based; conditions: means (n = 3); read-out: IC50 μM (95% Cl)
An. gambiae = experiment: mosquito fecundity, eggs laid; assay type: in vivo, Anopheles gambiae; conditions: 72 h post blood feeding; VU041 ~1 μg/mg, VU937 ~10 μg/mg
Description: Briefly, adult female mosquitoes were given access to an anesthetized mouse for 60 min. […] After treatment, individual female mosquitoes were transferred to Drosophila vials (Fisher Scientific, Pittsburgh, OA) containing 2 mL of water. The total number of eggs was counted 72 hours after each mosquito was transferred into a vial. Any mosquitoes that died during this 72-hour period were excluded from the analysis. All assays were performed in an environmental chamber that was maintained at 27° C. and 75% relative humidity; mosquitoes were given access to 10% sucrose solution ad libitum. At least 25 female mosquitoes were used per replicate for each treatment group; each treatment was repeated on three separate broods, giving a total number of individuals from 75-113 for each group.

Chain of AnKir1 (A0A075M2J8 1-555): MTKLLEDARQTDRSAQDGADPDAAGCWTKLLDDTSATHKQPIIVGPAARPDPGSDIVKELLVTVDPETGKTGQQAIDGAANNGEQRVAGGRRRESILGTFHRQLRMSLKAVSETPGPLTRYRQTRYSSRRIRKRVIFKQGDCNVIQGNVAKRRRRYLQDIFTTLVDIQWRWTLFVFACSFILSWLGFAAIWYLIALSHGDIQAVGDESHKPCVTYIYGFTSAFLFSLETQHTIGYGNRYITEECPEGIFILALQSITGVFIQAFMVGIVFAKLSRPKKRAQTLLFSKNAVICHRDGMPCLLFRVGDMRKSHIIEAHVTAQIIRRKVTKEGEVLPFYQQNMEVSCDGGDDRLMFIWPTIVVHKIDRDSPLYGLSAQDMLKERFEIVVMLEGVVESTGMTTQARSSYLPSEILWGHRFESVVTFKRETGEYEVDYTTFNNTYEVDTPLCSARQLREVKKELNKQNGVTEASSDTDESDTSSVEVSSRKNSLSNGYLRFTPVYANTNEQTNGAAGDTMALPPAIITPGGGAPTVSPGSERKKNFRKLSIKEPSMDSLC
Chain of Kir6.2/SUR1 (Q14654 whole entry): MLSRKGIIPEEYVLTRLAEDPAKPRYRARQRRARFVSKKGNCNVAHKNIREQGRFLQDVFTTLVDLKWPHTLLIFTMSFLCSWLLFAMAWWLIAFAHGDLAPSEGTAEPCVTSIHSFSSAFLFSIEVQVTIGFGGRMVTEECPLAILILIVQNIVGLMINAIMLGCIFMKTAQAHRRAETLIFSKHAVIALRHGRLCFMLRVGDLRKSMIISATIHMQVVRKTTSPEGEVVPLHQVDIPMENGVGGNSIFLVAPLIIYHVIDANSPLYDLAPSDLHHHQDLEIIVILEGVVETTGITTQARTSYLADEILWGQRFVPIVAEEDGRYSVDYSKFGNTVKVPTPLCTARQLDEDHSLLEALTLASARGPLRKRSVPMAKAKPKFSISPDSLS
Chain of Kir6.2/SUR1 (Q09428 whole entry): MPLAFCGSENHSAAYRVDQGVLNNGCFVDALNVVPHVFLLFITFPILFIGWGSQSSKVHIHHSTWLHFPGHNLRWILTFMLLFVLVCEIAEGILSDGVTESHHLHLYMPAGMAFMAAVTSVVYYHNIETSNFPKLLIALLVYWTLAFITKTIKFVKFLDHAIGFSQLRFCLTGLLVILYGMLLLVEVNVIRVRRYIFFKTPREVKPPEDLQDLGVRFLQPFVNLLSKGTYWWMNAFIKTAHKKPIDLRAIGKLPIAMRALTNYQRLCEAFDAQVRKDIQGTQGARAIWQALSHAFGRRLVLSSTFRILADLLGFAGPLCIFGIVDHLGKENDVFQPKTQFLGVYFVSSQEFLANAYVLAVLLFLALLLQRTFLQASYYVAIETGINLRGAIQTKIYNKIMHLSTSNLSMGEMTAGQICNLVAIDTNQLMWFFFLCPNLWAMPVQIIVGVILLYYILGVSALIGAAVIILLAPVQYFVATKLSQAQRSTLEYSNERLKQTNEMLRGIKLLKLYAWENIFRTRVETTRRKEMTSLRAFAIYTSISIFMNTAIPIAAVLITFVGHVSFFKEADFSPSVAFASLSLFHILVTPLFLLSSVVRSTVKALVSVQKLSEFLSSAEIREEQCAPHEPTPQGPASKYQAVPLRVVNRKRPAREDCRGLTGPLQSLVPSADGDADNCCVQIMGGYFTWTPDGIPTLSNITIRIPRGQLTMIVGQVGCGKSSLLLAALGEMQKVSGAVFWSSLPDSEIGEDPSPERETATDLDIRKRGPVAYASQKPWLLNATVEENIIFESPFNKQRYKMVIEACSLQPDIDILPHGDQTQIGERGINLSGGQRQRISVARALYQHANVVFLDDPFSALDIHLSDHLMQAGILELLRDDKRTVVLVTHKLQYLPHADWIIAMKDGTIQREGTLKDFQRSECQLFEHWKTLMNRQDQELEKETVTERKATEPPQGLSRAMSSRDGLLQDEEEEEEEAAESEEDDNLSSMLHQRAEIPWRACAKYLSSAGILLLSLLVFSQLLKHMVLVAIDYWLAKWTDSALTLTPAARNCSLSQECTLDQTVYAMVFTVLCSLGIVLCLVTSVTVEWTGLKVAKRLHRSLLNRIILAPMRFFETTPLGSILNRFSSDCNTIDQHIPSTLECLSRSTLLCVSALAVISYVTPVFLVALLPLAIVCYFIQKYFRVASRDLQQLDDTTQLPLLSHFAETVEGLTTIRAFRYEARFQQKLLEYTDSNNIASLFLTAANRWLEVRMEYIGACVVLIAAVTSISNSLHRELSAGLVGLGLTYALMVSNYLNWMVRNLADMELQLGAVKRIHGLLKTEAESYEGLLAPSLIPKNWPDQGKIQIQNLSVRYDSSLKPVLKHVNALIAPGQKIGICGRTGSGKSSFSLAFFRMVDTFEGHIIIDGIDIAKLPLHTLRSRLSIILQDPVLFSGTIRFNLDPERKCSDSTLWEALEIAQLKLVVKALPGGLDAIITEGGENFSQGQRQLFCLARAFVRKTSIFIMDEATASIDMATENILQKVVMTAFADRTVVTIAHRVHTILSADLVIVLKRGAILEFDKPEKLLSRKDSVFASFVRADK
Chain of Kir4.1 (P78508 whole entry): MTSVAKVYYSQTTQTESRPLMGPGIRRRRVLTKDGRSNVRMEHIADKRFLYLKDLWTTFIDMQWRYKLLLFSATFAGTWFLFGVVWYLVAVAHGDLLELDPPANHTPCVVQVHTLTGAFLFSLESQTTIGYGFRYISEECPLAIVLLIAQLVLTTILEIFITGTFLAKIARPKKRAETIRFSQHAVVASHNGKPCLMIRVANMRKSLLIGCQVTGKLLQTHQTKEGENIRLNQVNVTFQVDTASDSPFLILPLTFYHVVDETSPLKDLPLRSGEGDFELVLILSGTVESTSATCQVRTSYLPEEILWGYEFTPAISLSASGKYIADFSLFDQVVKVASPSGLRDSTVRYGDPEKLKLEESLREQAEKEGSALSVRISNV
Chain of AeKir1 (L0EQS9 1-486): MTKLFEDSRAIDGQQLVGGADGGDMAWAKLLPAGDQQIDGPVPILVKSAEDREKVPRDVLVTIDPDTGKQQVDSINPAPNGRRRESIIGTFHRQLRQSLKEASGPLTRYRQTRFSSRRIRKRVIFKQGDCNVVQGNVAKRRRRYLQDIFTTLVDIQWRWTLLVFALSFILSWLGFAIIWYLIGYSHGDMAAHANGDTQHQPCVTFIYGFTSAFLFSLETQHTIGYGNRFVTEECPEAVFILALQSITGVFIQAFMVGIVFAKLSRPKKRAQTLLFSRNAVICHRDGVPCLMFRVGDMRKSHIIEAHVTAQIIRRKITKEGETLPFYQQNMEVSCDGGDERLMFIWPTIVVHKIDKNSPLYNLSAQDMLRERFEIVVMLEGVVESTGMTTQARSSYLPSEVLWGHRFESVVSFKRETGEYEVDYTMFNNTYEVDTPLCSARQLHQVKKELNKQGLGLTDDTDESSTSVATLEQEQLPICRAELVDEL

Compound	AnKir1 IC50 (μM) (AnKir1; SAR libraries, listed as 18)	AnKir1 IC50 (μM) (AnKir1; SAR libraries, listed as Compound 18)	solubility limit ([1]; 5% sucrose solution) [µM]	IC50 (Kir4.1) [µM]	inhibition at 30 µM (Kir6.2/SUR1; concentration of 30 μM) [%]	IC50 (Kir6.2/SUR1; means (n = 3), read-out: IC50 μM (95% Cl)) [µM]	IC50 (AnKir1; SAR libraries, read-out: AnKir1 IC50) [µM]	IC50 (AnKir1; means (n = 3), selectivity panel, read-out: IC50 μM (95% Cl)) [µM]	IC50 (AeKir1) [µM]	solubility ([1]; 5% (wt/vol) sucrose solution, water) [µM]	median number of eggs laid per mosquito (An. gambiae)
O=C(Cn1nc(C(F)(F)F)c2c1CCCC2)NC1CCC1 [VU937]	inactive	not tolerated	700 (≈ 211 µg/mL)								
O=C(Cn1nc(C(F)(F)F)c2c1CCCC2)N1CCCc2ccccc21 [VU041, 1-(3,4-dihydroquinolin-1(2H)-yl)-2-(3-(trifluoromethyl)-4,5,6,7-tetrahydro-1H-indazol-1-yl)ethan-1-one]				> 30	< 10	> 30	2.3	2.5	1.7	200 (≈ 72.7 µg/mL)	significantly lower median number of eggs per mosquito
